The values that follow come from patent US8053435B2, “Naphthalenyloxypropenyl derivatives having inhibitory activity against histone deacetylase and pharmaceutical composition comprising the same” (Korea Research Institute of Chemical Technology, priority 2006, dated 2011).

The first test deals with HDAC. As to the kind of experiment: Inhibitory activity against HDAC (BIOMOL Quantizyme Assay system, Fluor de Lys substrate). It counts as biochemical. The note with it: Table 1, formula (1) series; HeLa nuclear extract as source of HDAC enzymes; enzyme reaction 1 hr; read-out: IC50 (HDAC inhibitory concentration). Here is the method: HDAC activity was analyzed using BIOMOL Quantizyme™ Assay system which comprised two steps of 1) enzyme reaction between HDAC and a substrate and 2) determination of the level of HDAC inhibitory activity.
(§1) 0.5 μl of HeLa nuclear organic layer (10 μM) (a source of HDAC enzymes) was then added thereto to a final concentration of 100 nM. The enzyme reaction was carried out for 1 hr.
Subsequently, in step 2), 2 μM tricostatin A was added to 50 μl of Flour de Lys™ developer, followed by allowing the mixture to react at room temperature for 15 minutes. The light excited at 355 nm and emitted at 460 nm from the fluorophore was measured with a fluorometric plate reader. The intensity of the fluorescence increases as the enzyme activity is higher. The HDAC inhibitory activity of each of the test compounds was determined and compared with that of the control.
0.5 μl of HeLa nuclear organic layer (10 μM) (a source of HDAC enzymes) was then added thereto to a final concentration of 100 nM, The enzyme reaction was carried out for 1 hr.
as §1, §1
Take `O=C(NCCCN1CCOCC1)/C(=C/c1ccc(C(=O)NO)cc1)COc1cccc2ccccc12` [Example 1-18, (E)-4-(3-(3-Morpholinopropylamino)-2-((naphthalen-1-yloxy)methyl)-3-oxoprop-1-enyl)-N-hydroxybenzamide]: the IC50 turned out to be 0.021 µM.
In the case of `CC(C)N(CCNC(=O)/C(=C/c1ccc(C(=O)NO)cc1)COc1cccc2ccccc12)C(C)C` [Example 1-5], the IC50 came to 0.014 µM.
Same read-out and setting: for `O=C(NCC1CCCO1)C(=Cc1ccc(C(=O)NO)cc1)COc1cccc2ccccc12` (centres unmarked) [Example 1-9, (E)-4-(3-(Tetrahydrofuran-2-yl)methylamino)-2-((naphthalen-1-yloxy)methyl)-3-oxoprop-1-enyl)-N-hydroxybenzamide] the value was 0.06 µM.
`COCCNC(=O)/C(=C/c1ccc(C(=O)NO)cc1)COc1cccc2ccccc12` [Example 1-14, (E)-4-(3-(2-Methoxyethylamino)-2-((naphthalen-1-yloxy)methyl)-3-oxoprop-1-enyl)-N-hydroxybenzamide]: the IC50 came out at 0.03 µM.
Take `O=C(NCCCN1CCCC1=O)/C(=C/c1ccc(C(=O)NO)cc1)COc1cccc2ccccc12` [Example 1-11, (E)-4-(3-(3-(2-Oxopyrrolidin-1-yl)propylamino)-2-((naphthalen-1-yloxy)methyl)-3-oxoprop-1-enyl)-N-hydroxy-benzamide]: the IC50 is 0.04 µM.
Regarding `O=C(NCc1cccs1)/C(=C/c1ccc(C(=O)NO)cc1)COc1cccc2ccccc12` [Example 1-16, (E)-4-(3-(Thiophen-2-ylmethylamino)-2-((naphthalen-1-yloxy)methyl)-3-oxoprop-1-enyl)-N-hydroxybenzamide], the IC50 amounted to 0.01 µM.

Still in this test, the particulars now being: Table 3, formula (2) series; HeLa nuclear extract as source of HDAC enzymes; enzyme reaction 1 hr; read-out: IC50 (HDAC inhibitory concentration).
With “(E)-N1-(2-(Diisopropylamino)ethyl)-N8-hydroxy-2-((naphthalen-1-yloxy)methyl)octenediamide [Example 2-4]”, the IC50 stood at 0.009 µM.
On the same count and under the same terms, for `O=C(CCCC/C=C(\COc1cccc2ccccc12)C(=O)NCCCN1CCCC1=O)NO` [Example 2-10, (E)-N8-Hydroxy-2-((naphthalen-1-yloxy)methyl)-N1-(3-(2-oxopyrrolidin-1-yl)propyl)-2-octenediamide] the value was 0.016 µM; for `CCN1CCC(NC(=O)/C(=C/CCCCC(=O)NO)COc2cccc3ccccc23)CC1` [Example 2-28, (E)-N1-(1-Ethylpiperidin-4-yl)-N8-hydroxy-2-((naphthalen-1-yloxy)methyl)-2-octenediamide], 0.013 µM.
With `O=C(CCCC/C=C(\COc1cccc2ccccc12)C(=O)NC1CCNC1)NO` (centres unmarked) [Example 2-24, (E)-N8-Hydroxy-2-((naphthalen-1-yloxy)methyl)-N1-(pyrrolidin-3-yl)-2-octenediamide], the IC50 stood at 0.012 µM.
Regarding `O=C(CCCC/C=C(\COc1cccc2ccccc12)C(=O)NCCC1=CCCCC1)NO` [Example 2-9, (E)-N1-(2-Cyclohexenylethyl)-N8-hydroxy-2-((naphthalen-1-yloxy)methyl)-2-octenediamide], the IC50 was 0.027 µM.

The test is the same for the next values; noted with them: Table 7, formula (4) series; HeLa nuclear extract as source of HDAC enzymes; enzyme reaction 1 hr; read-out: HDAC Inhibitory conc. (IC50, μM/ml).
For the compound `O=C(NO)c1ccc(/C=C(/CNC2CCN(C(=O)C3CCCCC3)C2)COc2cccc3ccccc23)cc1` (centres unmarked) [Example 4-6, (Z)-4-(3-(1-(cyclohexylcarbonyl)pyrrolidin-3-ylamino)-2-((naphthalen-1-yloxy)-methyl)prop-1-enyl)-N-hydroxybenzamide], the IC50 turned out to be 0.061 µM.
As for `O=C(NO)c1ccc(/C=C(/CNC2CCN(C3CCCCC3)C2)COc2cccc3ccccc23)cc1` (centres unmarked) [Example 4-12, (Z)-4-(3-(1-cyclohexylpyrrolidin-3-ylamino)-2-((naphthalen-1-yloxy)methyl)prop-1-enyl)-N-hydroxybenzamide], the IC50 was found to be 0.04 µM.
With `CC(C)(C)OC(=O)N1CCC(NC/C(=C/c2ccc(C(=O)NO)cc2)COc2cccc3ccccc23)C1` (centres unmarked) [Example 4-4, t-butyl (Z)-3-(3-(4-(hydroxycarbamoyl)phenyl)-2-((naphthalen-1-yloxy)methyl)allylamino)-pyrrolidine-1-carboxylate], the IC50 is 0.208 µM.
